Literature values as cited in PMC7196435 (Bioorganic & medicinal chemistry letters, 2020).

System: CYP46A1
Conditions: at 1 μM concentration

Question: For `O=C(NCc1ccccc1)N1CCN(c2cncnc2-c2ccccc2)CC1` [compound 1], which “inhibitory activity towards CYP46A1” value is on record?
Answer: 95%
